# According to patent US20110171714A1, “CRYSTAL STRUCTURE OF TAK1-TAB1” (VERTEX PHARMACEUTICALS INCORPORATED, priority 2005, published 2011):
# B1: TAB1 segment (residues H468-P504) of human TAK1 binding protein, as part of the TAK1(I31-Q303)/TAB1(H468-P504) chimera (peptide, UniProt Q15750 468-504, looked up)
# chain: HSLPPGEDGRVEPYVDFAEFYRLWSVDHGEQSVVTAP
# notes: range 468-504; In the crystal this segment is not a separate chain; It is fused directly to the C-terminus of TAK1 I31-Q303; also called Tab1 peptide
# Legend:
# [1] = system: picryl chloride-induced ear swelling; details: picryl chloride-induced ear swelling mouse model; cited from earlier work
# [2] = target: T1, TAK1 kinase domain (residues I31-Q303) of human transforming growth factor-beta-activated kinase 1, as part … (human, UniProt O43318 31-303); assay: X-ray crystal structure of the TAK1(I31-Q303)/TAB1(H468-P504) chimera (both parts in one fused chain)
# T1 construct: range 31-303; In the crystal this domain is not a separate chain; Its C-terminus (Q303) is fused directly, without linker, to TAB1 H468-P504, giving one polypeptide; It was expressed in baculovirus/Hi5 cells and is unphosphorylated; The N-terminal His6 tag was removed by thrombin; also called TAK1 catalytic kinase domain
# T1 sequence (looked up): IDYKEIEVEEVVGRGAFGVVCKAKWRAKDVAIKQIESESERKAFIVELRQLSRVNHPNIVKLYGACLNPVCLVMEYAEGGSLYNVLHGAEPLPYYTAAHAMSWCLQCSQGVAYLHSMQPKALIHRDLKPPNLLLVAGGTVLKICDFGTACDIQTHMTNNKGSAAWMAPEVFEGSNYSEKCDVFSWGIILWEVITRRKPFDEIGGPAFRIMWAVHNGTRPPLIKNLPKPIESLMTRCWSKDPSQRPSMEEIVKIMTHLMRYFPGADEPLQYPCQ
molecule,measurement,setting,value
COc1cc(O)c2c(c1)/C=C/C[C@H](O)[C@H](O)C(=O)/C=C\C[C@H](C)OC2=O [5Z-7-oxozeaenol],effect on inflammation,[1],relieves inflammation
B1,binding result,[2],binds
